# Source: ChEMBL document CHEMBL1201862, “PubChem BioAssay data set” (2004)
#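 Following 48 hours of exposure in 96-well plates, responses at five concentrations were used to interpolate endpoints linearly. GI50 = concentration required for 50% inhibition of growth.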 Activity calls are given as the source filed them. Rule as the data show it: active = GI50 up to about 1.1 µM and inactive = higher.
# How the values were obtained:
# Test in all cases: NCI tumour cell line growth inhibition, 48 h
# [1] = tested on: SW-620
# [2] = tested on: OVCAR-5
# [3] = tested on: 786-0
# [4] = tested on: HOP-92
# [5] = tested on: SK-MEL-2
# [6] = tested on: HL-60
# [7] = tested on: TK-10
# [8] = tested on: SNB-19
# [9] = tested on: MDA-N
# [10] = tested on: SF-539
# [11] = tested on: NCI-H226
# [12] = tested on: LOX IMVI
# [13] = tested on: SNB-75
# [14] = tested on: OVCAR-4
# [15] = tested on: ACHN
# [16] = tested on: BT-549
# [17] = tested on: K562
# [18] = tested on: MOLT-4
# [19] = tested on: DU-145
# [20] = tested on: RPMI-8226
# [21] = tested on: MDA-MB-435
# [22] = tested on: UO-31
# [23] = tested on: NCI-H460
# [24] = tested on: EKVX
# [25] = tested on: HCT-116
# [26] = tested on: CAKI-1
# [27] = tested on: CCRF-CEM
# [28] = tested on: COLO 205
# [29] = tested on: HOP-62
# [30] = tested on: NCI-H23
# [31] = tested on: SR
# [32] = tested on: UACC-257
# [33] = tested on: A549
# [34] = tested on: Malme-3M
# [35] = tested on: NCI-H522
# [36] = tested on: SK-MEL-28
# [37] = tested on: RXF 393
# [38] = tested on: T47D
# [39] = tested on: IGROV-1
# [40] = tested on: OVCAR-8
# [41] = tested on: MCF7
# [42] = tested on: UACC-62
# [43] = tested on: PC-3
# [44] = tested on: HT-29
# [45] = tested on: SF-268
# [46] = tested on: Hs-578T
# [47] = tested on: SK-MEL-5
# [48] = tested on: HCT-15
# [49] = tested on: SN12C
# [50] = tested on: A498
# [51] = tested on: MDA-MB-231
# [52] = tested on: U-251
# [53] = tested on: OVCAR-3
# [54] = tested on: NCI/ADR-RES
# [55] = tested on: SK-OV-3
# [56] = tested on: SF-295
# [57] = tested on: M14
# [58] = tested on: KM12
smiles,measurement,setting,value
CCOC(=O)c1c(CN2CCCC2)n(-c2ccccc2)c2cc(Br)c(OC)cc12,GI50,[1],18 µM (inactive)
same,GI50,[2],19.5 µM (inactive)
same,GI50,[3],15 µM (inactive)
same,GI50,[4],10.6 µM (inactive)
same,GI50,[5],18 µM (inactive)
same,GI50,[6],12.5 µM (inactive)
same,GI50,[7],11.8 µM (inactive)
same,GI50,[8],33.7 µM (inactive)
same,GI50,[9],29.3 µM (inactive)
same,GI50,[10],23.6 µM (inactive)
same,GI50,[11],13.3 µM (inactive)
same,GI50,[12],13.8 µM (inactive)
same,GI50,[13],5.97 µM (inactive)
same,GI50,[14],33.4 µM (inactive)
same,GI50,[15],11.1 µM (inactive)
same,GI50,[16],18.7 µM (inactive)
same,GI50,[17],16.2 µM (inactive)
same,GI50,[18],4.41 µM (inactive)
same,GI50,[19],17.7 µM (inactive)
same,GI50,[20],12.8 µM (inactive)
same,GI50,[21],26.9 µM (inactive)
same,GI50,[22],11.5 µM (inactive)
same,GI50,[23],6.89 µM (inactive)
same,GI50,[24],20 µM (inactive)
same,GI50,[25],11.2 µM (inactive)
same,GI50,[26],41.6 µM (inactive)
same,GI50,[27],8.87 µM (inactive)
same,GI50,[28],11.8 µM (inactive)
same,GI50,[29],8.75 µM (inactive)
same,GI50,[30],20.5 µM (inactive)
same,GI50,[31],6.14 µM (inactive)
same,GI50,[32],13.2 µM (inactive)
same,GI50,[33],7.35 µM (inactive)
same,GI50,[34],16.7 µM (inactive)
same,GI50,[35],13.7 µM (inactive)
same,GI50,[36],15.6 µM (inactive)
same,GI50,[37],0.574 µM (active)
same,GI50,[38],14.5 µM (inactive)
same,GI50,[39],16.5 µM (inactive)
same,GI50,[40],29.2 µM (inactive)
same,GI50,[41],6.87 µM (inactive)
same,GI50,[42],10.9 µM (inactive)
same,GI50,[43],20.8 µM (inactive)
same,GI50,[44],7.57 µM (inactive)
same,GI50,[45],46.6 µM (inactive)
same,GI50,[46],29.9 µM (inactive)
same,GI50,[47],12.3 µM (inactive)
same,GI50,[48],14.4 µM
same,GI50,[49],26.1 µM (inactive)
same,GI50,[50],4.78 µM (inactive)
same,GI50,[51],17.2 µM (inactive)
same,GI50,[52],16.1 µM (inactive)
same,GI50,[53],24.9 µM (inactive)
same,GI50,[54],15.2 µM (inactive)
same,GI50,[55],25.5 µM (inactive)
same,GI50,[56],14.8 µM (inactive)
same,GI50,[57],16.3 µM (inactive)
COC(=O)Cc1c(/C=C/C(C)(C)n2cnc(CCN3C(=O)CCC3=O)c2)[nH]c2ccccc12,GI50,[1],> 100 µM (inactive)
same,GI50,[2],> 100 µM (inactive)
same,GI50,[3],> 100 µM (inactive)
same,GI50,[4],53.6 µM (inactive)
same,GI50,[5],> 100 µM (inactive)
same,GI50,[6],> 100 µM (inactive)
same,GI50,[7],> 100 µM (inactive)
same,GI50,[8],> 100 µM (inactive)
same,GI50,[9],> 100 µM (inactive)
same,GI50,[10],> 100 µM (inactive)
same,GI50,[11],> 100 µM (inactive)
same,GI50,[12],> 100 µM (inactive)
same,GI50,[13],50.4 µM (inactive)
same,GI50,[14],> 100 µM (inactive)
same,GI50,[15],95.5 µM (inactive)
same,GI50,[16],> 100 µM (inactive)
same,GI50,[17],> 100 µM (inactive)
same,GI50,[18],57.3 µM (inactive)
same,GI50,[19],> 100 µM (inactive)
same,GI50,[21],> 100 µM (inactive)
same,GI50,[22],74.8 µM (inactive)
same,GI50,[23],> 100 µM (inactive)
same,GI50,[24],13.7 µM (inactive)
same,GI50,[25],> 100 µM (inactive)
same,GI50,[26],> 100 µM (inactive)
same,GI50,[27],40.4 µM (inactive)
same,GI50,[28],> 100 µM (inactive)
same,GI50,[30],> 100 µM (inactive)
same,GI50,[31],61.4 µM (inactive)
same,GI50,[32],> 100 µM (inactive)
same,GI50,[33],94.6 µM (inactive)
same,GI50,[34],37 µM (inactive)
same,GI50,[35],43.4 µM (inactive)
same,GI50,[36],> 100 µM (inactive)
same,GI50,[37],36.3 µM (inactive)
same,GI50,[38],22.3 µM (inactive)
same,GI50,[39],> 100 µM (inactive)
same,GI50,[40],> 100 µM (inactive)
same,GI50,[41],47.2 µM (inactive)
same,GI50,[42],14.2 µM (inactive)
same,GI50,[43],> 100 µM (inactive)
same,GI50,[44],35.4 µM (inactive)
same,GI50,[45],59.6 µM (inactive)
same,GI50,[46],43.7 µM (inactive)
same,GI50,[47],66.8 µM (inactive)
same,GI50,[48],> 100 µM
same,GI50,[49],> 100 µM (inactive)
same,GI50,[50],> 100 µM (inactive)
same,GI50,[51],> 100 µM (inactive)
same,GI50,[52],> 100 µM (inactive)
same,GI50,[58],> 100 µM (inactive)
same,GI50,[53],> 100 µM (inactive)
same,GI50,[54],> 100 µM (inactive)
same,GI50,[55],> 100 µM (inactive)
same,GI50,[56],81.1 µM (inactive)
same,GI50,[57],> 100 µM (inactive)
COc1ccc2c(c1)N(CCC1CCCCN1C)c1ccccc1S2 (stereo not given) [OXYRIDAZINE],GI50,[1],14.7 µM (inactive)
same,GI50,[2],15.2 µM (inactive)
same,GI50,[3],13.1 µM (inactive)
same,GI50,[4],9.08 µM (inactive)
same,GI50,[5],14.7 µM (inactive)
same,GI50,[6],9.14 µM (inactive)
same,GI50,[7],14.5 µM (inactive)
same,GI50,[8],15.2 µM (inactive)
same,GI50,[9],12 µM (inactive)
same,GI50,[10],23.1 µM (inactive)
same,GI50,[11],23.6 µM (inactive)
same,GI50,[12],9.57 µM (inactive)
same,GI50,[13],11.6 µM (inactive)
same,GI50,[14],11.1 µM (inactive)
same,GI50,[15],13.8 µM (inactive)
same,GI50,[16],16.1 µM (inactive)
same,GI50,[17],4.37 µM (inactive)
same,GI50,[18],4.85 µM (inactive)
same,GI50,[19],13.2 µM (inactive)
same,GI50,[20],12.4 µM (inactive)
same,GI50,[21],7.62 µM (inactive)
same,GI50,[23],7.46 µM (inactive)
same,GI50,[24],19.4 µM (inactive)
same,GI50,[25],12.8 µM (inactive)
same,GI50,[26],9.48 µM (inactive)
same,GI50,[27],10.1 µM (inactive)
same,GI50,[28],12.3 µM (inactive)
same,GI50,[29],15.8 µM (inactive)
same,GI50,[30],17.1 µM (inactive)
same,GI50,[31],5.73 µM (inactive)
same,GI50,[32],5.08 µM (inactive)
same,GI50,[33],14.1 µM (inactive)
same,GI50,[34],18.2 µM (inactive)
same,GI50,[35],13.1 µM (inactive)
same,GI50,[36],3.58 µM (inactive)
same,GI50,[37],7.18 µM (inactive)
same,GI50,[38],10.8 µM (inactive)
same,GI50,[39],12.5 µM (inactive)
same,GI50,[40],15 µM (inactive)
same,GI50,[41],11.4 µM (inactive)
same,GI50,[42],12.6 µM (inactive)
same,GI50,[43],10.8 µM (inactive)
same,GI50,[44],5.12 µM (inactive)
same,GI50,[45],12.4 µM (inactive)
same,GI50,[46],10.3 µM (inactive)
same,GI50,[47],10.8 µM (inactive)
same,GI50,[48],13.4 µM
same,GI50,[49],13.4 µM (inactive)
same,GI50,[50],10.8 µM (inactive)
same,GI50,[51],11 µM (inactive)
same,GI50,[52],11.3 µM (inactive)
same,GI50,[58],10.8 µM (inactive)
same,GI50,[53],15.6 µM (inactive)
same,GI50,[54],12 µM (inactive)
same,GI50,[55],16.3 µM (inactive)
same,GI50,[56],16 µM (inactive)
same,GI50,[57],3.13 µM (inactive)
